These results are taken from US20050227266A1, “Biomarker:compound correlations in cancer diagnosis and therapy” (priority 2004, published 2005).

The test system of this data set is NCI60 cell lines. As to conditions: not told.

Description: Compounds are tested according to a standard protocol (dtp.nci.nih.gov/branches/btb/ivclsp.html, reproduced as Appendix B), and GI50 data (i.e., data indicating the concentration of a compound that inhibits growth of a particular cell line by 50% after 48 hours of exposure) for many compounds, including a set of 171 so-called Standard Agents (dtp.nci.nih.gov/docs/cancer/searches/standard_agent.html, reproduced as Appendix C) are made publicly available.
Inventive biomarker:compound correlations are established by comparing the expression/activity expression and compound toxicity datasets. […] Such comparisons can quantify the association between the variables, e.g., using a Pearson or Spearman correlation. […] For example, to aid in the identification of non-linear relationships between compound toxicity and presence of a biomarker (e.g., a threshold response), values above or below a certain limit may be given a common value, or weighted, before the comparison is measured.
The present inventors established a gene expression profile for each of the 59 publicly-available NCI60 cell lines. […] Specifically, cDNAs that were detectable in fewer than 80% of the cell lines were discarded; approximately 17,000 unique genes were left whose measurements were recorded. […]

As to `CC(=O)O[C@H]1C(=O)[C@@]2(C)[C@H]([C@H](OC(=O)c3ccccc3)[C@]3(O)C[C@H](OC(=O)[C@H](O)[C@@H](NC(=O)c4ccccc4)c4ccccc4)C(C)=C1C3(C)C)[C@]1(OC(C)=O)CO[C@@H]1C[C@@H]2O` [Paclitaxol], the “correlation of toxicity pattern with ABCB1 (PGP) gene expression” value is listed as “highest negative correlation”.
